Data published in patent US20240116985A1, “STAPLED PEPTIDES AND METHODS THEREOF” (priority 2020, published 2024).
In brackets after ≈: the same amount, converted by molar mass. Read-outs that look alike come from different tables or passages of the source.

Columns and labels:
Solubility in PBS = format: physicochemical
Outline: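 Steps: ultracentrifuge the peptide PBS solution, inject the supernatant on HPLC, inject a 50 μM peptide DMSO solution as reference, then calculate solubility as area ratio (PBS/DMSO) × 50 uM.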

[1] = molecular target: T1, full-length beta-Catenin (Uniprot ID P35222) (Homo sapiens, UniProt P35222); assay: Fluorescence polarization IC50 (beta-catenin / 5FAM-TCF4 10-53 competition); format: binding
T1 construct: 10 nM full-length beta-Catenin (Uniprot ID P35222)
T1 sequence (P35222 1-781): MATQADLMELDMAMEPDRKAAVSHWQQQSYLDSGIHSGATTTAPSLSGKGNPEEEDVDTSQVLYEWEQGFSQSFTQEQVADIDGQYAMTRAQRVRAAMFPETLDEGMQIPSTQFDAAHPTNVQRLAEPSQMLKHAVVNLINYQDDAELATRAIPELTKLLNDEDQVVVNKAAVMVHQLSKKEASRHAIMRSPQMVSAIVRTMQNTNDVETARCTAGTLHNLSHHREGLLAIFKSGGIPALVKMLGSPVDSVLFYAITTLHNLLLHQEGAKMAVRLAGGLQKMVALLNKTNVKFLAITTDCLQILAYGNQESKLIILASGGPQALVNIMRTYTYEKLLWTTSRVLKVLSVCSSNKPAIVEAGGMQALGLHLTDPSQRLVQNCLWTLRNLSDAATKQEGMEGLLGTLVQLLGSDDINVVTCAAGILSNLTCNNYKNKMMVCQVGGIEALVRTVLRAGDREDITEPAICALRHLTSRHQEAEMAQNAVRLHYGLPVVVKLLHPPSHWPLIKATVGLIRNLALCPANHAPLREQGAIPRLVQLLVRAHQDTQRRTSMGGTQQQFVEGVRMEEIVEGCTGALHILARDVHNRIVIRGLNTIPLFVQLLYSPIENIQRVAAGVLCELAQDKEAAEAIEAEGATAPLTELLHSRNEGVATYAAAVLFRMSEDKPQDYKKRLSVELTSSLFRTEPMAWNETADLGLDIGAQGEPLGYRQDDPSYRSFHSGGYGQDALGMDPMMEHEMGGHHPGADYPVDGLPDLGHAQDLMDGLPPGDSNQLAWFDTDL

CHI Log D procedure = format: physicochemical; conditions: for CHI Log D: pH 7.4
[2] = fluorescence polarization, read-out: beta-Catenin FP IC50
[3] = fluorescence polarization, beta-catenin, read-out: FP EC50

Row | SMILES | Solubility (Solubility in PBS; Solubility (uM)) | IC50 ([1]; read-out: beta-Catenin FP IC50) | chromatographic logD (CHI Log D procedure; pH 7.4, CHI Log D) | Solubility (Solubility in PBS) | IC50 [1, 2] | IC50 ([1]; read-out: FP EC50) | CHI Log D (CHI Log D procedure) | IC50 [1, 3] | logD (CHI Log D procedure; pH 7.4, CHI Log D)
1 | CC(=O)N1CCC[C@]12CC=CCCCC1(CCCC=CCCCOC(=O)N3CC[C@@](C(=O)N[C@@H](Cc4ccsc4)C(=O)N[C@@H](Cc4csc5ccccc45)C(=O)N[C@@H](CCC(N)=O)C(N)=O)(C3)NC(=O)[C@H](CC(N)=O)NC(=O)[C@H](Cc3cscn3)NC(=O)[C@H](C)NC(=O)[C@H](C)NC(=O)[C@H](CC(=O)O)NC(=O)[C@H](CC(=O)O)NC1=O)NC(=O)[C@H](CC(C)(C)C)NC(=O)[C@H](CC(=O)O)NC2=O (stereo partly drawn) [I-812, Ac-PL3-Asp-Npg-B5-Asp-Asp-Ala-Ala-4Thz-Asn-PyrS2-3Thi-BztA-Gln-NH2] | 47 µM (≈ 90.5 µg/mL) | 33 nM | 1.9 | – | – | – | – | – | –
2 | CC(=O)N1CCC[C@]12CC=CCCCC1(CCCC=CCCCOC(=O)N3CC[C@@](C(=O)N[C@@H](Cc4ccccc4Cl)C(=O)N[C@@H](Cc4csc5ccccc45)C(=O)N[C@@H](CCO)C(N)=O)(C3)NC(=O)[C@H](Cc3ccccc3)NC(=O)[C@H](Cc3ccccc3)NC(=O)[C@H](C)NC(=O)[C@H](C)NC(=O)[C@H](CN(CC(=O)O)CC(F)(F)F)NC(=O)[C@H](CC(=O)O)NC1=O)NC(=O)[C@H](CC(C)(C)C)NC(=O)[C@H](CC(=O)O)NC2=O (stereo partly drawn) [I-992, Ac-PL3-Asp-Npg-B5-Asp-TfeGA-Ala-Ala-Phe-Phe-PyrS2-2C1F-BztA-Hse-NH2] | 12 µM (≈ 24.8 µg/mL) | 59 nM | 2.56 | – | – | – | – | – | –
3 | CC(=O)N1CCC[C@]12CC=CCCCC1(CCCC=CCCCCCC[C@@](C)(C(=O)N[C@@H](Cc3ccccc3)C(=O)N[C@@H](Cc3csc4ccccc34)C(=O)N[C@@H](CCO)C(N)=O)NC(=O)[C@H](CCC(N)=O)NC(=O)[C@H](Cc3ccccc3)NC(=O)[C@H](C)NC(=O)[C@H](C)NC(=O)[C@H](CCC(=O)O)NC(=O)[C@H](CC(=O)O)NC1=O)NC(=O)[C@H](C)NC(=O)[C@H](CC(=O)O)NC2=O (stereo partly drawn) [I-491, Ac-PL3-Asp-Ala-B5-Asp-Glu-Ala-Ala-Phe-Gln-S8-Phe-BztA-Hse-NH2] | – | – | – | 39 µM (≈ 70.7 µg/mL) | 153 nM | 153 nM | 2.023 | – | –
4 | CC(=O)N1CCC[C@]12CC=CCCCC1(CCCC=CCCCOC(=O)N3CC[C@@](C(=O)N[C@@H](Cc4ccccc4Cl)C(=O)N[C@@H](Cc4csc5ccccc45)C(=O)N[C@@H](CCC(N)=O)C(N)=O)(C3)NC(=O)[C@H](CC(C)C)NC(=O)[C@H](Cc3ccccc3)NC(=O)[C@H](C)NC(=O)[C@H](C)NC(=O)[C@H](CC(=O)O)NC(=O)[C@H](CC(=O)O)NC1=O)NC(=O)[C@H](CC1CCCCC1)NC(=O)[C@H](CC(=O)O)NC2=O (stereo partly drawn) [I-1075, Ac-PL3-Asp-Cha-B5-Asp-Asp-Ala-Ala-Phe-Leu-PyrS2-2C1F-BztA-Gln-NH2] | – | 567 nM | – | 17 µM (≈ 33.5 µg/mL) | – | – | 1.971 | 567 nM | –
5 | CCN(CC(=O)O)C[C@@H]1NC(=O)[C@H](CC(=O)O)NC(=O)C2(CCCC=CCCCOC(=O)N3CC[C@@](C(=O)N[C@@H](Cc4ccsc4)C(=O)N[C@@H](Cc4csc5ccccc45)C(=O)N[C@@H](CCC(N)=O)C(N)=O)(C3)NC(=O)[C@H]([C@@H](C)O)NC(=O)[C@H](Cc3ccccc3)NC(=O)[C@H](C)NC(=O)[C@H](C)NC1=O)CCCC=CC[C@]1(CCCN1C(C)=O)C(=O)N[C@@H](CC(=O)O)C(=O)N[C@@H](CC(C)(C)C)C(=O)N2 (stereo partly drawn) [I-968, Ac-PL3-Asp-Npg-B5-Asp-EtGA-Ala-Ala-Phe-Thr-PyrS2-3Thi-BztA-Gln-NH2] | – | 2980 nM | – | 30 µM (≈ 58.9 µg/mL) | – | – | 1.752 | 2980 nM | –
6 | CC(=O)N1CCC[C@]12CC=CCCCC1(CCCC=CCCCOC(=O)N3CC[C@@](C(=O)N[C@@H](Cc4ccccc4Cl)C(=O)N[C@@H](Cc4csc5ccccc45)C(=O)N[C@@H](CO)C(N)=O)(C3)NC(=O)[C@H](CC(C)C)NC(=O)[C@H](Cc3ccccc3)NC(=O)[C@H](C)NC(=O)[C@H](C)NC(=O)[C@H](CC(=O)O)NC(=O)[C@H](CC(=O)O)NC1=O)NC(=O)[C@H](Cc1ccc3ccccc3c1)NC(=O)[C@H](CC(=O)O)NC2=O (stereo partly drawn) [I-1117, Ac-PL3-Asp-2NapA-B5-Asp-Asp-Ala-Ala-Phe-Leu-PyrS2-2C1F-BztA-Ser-NH2] | – | 55 nM | 2.61 | 10 µM (≈ 19.7 µg/mL) | – | – | – | – | –
7 | CC(=O)N1CCC[C@]12CC=CCCCC1(CCCC=CCCCCCC[C@@](C)(C(=O)N[C@@H](Cc3ccccc3)C(=O)N[C@@H](Cc3csc4ccccc34)C(N)=O)NC(=O)[C@H](CC(N)=O)NC(=O)[C@H](Cc3ccccc3)NC(=O)[C@H](C)NC(=O)[C@H](C)NC(=O)[C@H](CCC(=O)O)NC(=O)[C@H](CC(=O)O)NC1=O)NC(=O)[C@H](CC(C)(C)C)NC(=O)[C@H](CC(=O)O)NC2=O (stereo partly drawn) [I-712, Ac-PL3-Asp-Npg-B5-Asp-Glu-Ala-Ala-Phe-Asn-S8-Phe-BztA-NH2] | – | – | – | 42 µM (≈ 73.7 µg/mL) | 92 nM | 92 nM | 2.778 | – | –
8 | CC[C@H](C)[C@@H]1NC(=O)[C@H](CC(=O)O)NC(=O)[C@]2(CC=CCCCC3(CCCC=CCCCCCC[C@@](C)(C(=O)N[C@@H](Cc4ccccc4)C(=O)N[C@@H](Cc4csc5ccccc45)C(=O)N[C@@H](CC(C)C)C(N)=O)NC(=O)[C@H](CCC(N)=O)NC(=O)[C@H](Cc4ccccc4)NC(=O)[C@H](C)NC(=O)[C@H](C)NC(=O)[C@H](CCC(=O)O)NC(=O)[C@H](CC(=O)O)NC3=O)NC1=O)CCCN2C(C)=O (stereo partly drawn) [I-634, Ac-PL3-Asp-Ile-B5-Asp-Glu-Ala-Ala-Phe-Gln-S8-Phe-BztA-Leu-NH2] | 49 µM (≈ 91.5 µg/mL) | – | 2.76 | – | 425 nM | – | – | – | –
9 | CC(=O)N1CCC[C@]12CC=CCCCC1(CCCC=CCCCCOC(=O)N3CC[C@@](C(=O)N[C@@H](Cc4ccsc4)C(=O)N[C@@H](Cc4csc5ccccc45)C(=O)N[C@@H](Cc4c[nH]cn4)C(N)=O)(C3)NC(=O)[C@H](CC(N)=O)NC(=O)[C@H](Cc3ccccc3)NC(=O)[C@H](C)NC(=O)[C@H](C)NC(=O)[C@H](CC(=O)O)NC(=O)[C@H](CC(=O)O)NC1=O)NC(=O)[C@H](CC(C)(C)C)NC(=O)[C@H](CC(=O)O)NC2=O (stereo partly drawn) [I-776, Ac-PL3-Asp-Npg-B5-Asp-Asp-Ala-Ala-Phe-Asn-PyrS3-3Thi-BztA-His-NH2] | – | 5 nM | – | 41 µM (≈ 79.6 µg/mL) | – | – | 2.137 | – | –
10 | CC[C@H](C)[C@@H]1NC(=O)[C@H](CC(=O)O)NC(=O)[C@]2(CC=CCCCC3(CCCC=CCCCCCC[C@@](C)(C(=O)N[C@@H](Cc4ccccc4)C(=O)N[C@@H](Cc4csc5ccccc45)C(=O)N[C@@H](CCC(N)=O)C(N)=O)NC(=O)[C@H](CCC(N)=O)NC(=O)[C@H](Cc4ccccc4)NC(=O)[C@H](C)NC(=O)[C@H](CO)NC(=O)[C@H](CCC(=O)O)NC(=O)[C@H](CC(=O)O)NC3=O)NC1=O)CCCN2C(C)=O (stereo partly drawn) [I-651, Ac-PL3-Asp-Ile-B5-Asp-Glu-Ser-Ala-Phe-Gln-S8-Phe-BztA-Gln-NH2] | – | – | – | 48 µM (≈ 91.2 µg/mL) | 186 nM | 186 nM | 2.167 | – | –
11 | CC(=O)N1CCC[C@]12CC=CCCCC1(CCCC=CCCCCCC[C@@](C)(C(=O)N[C@@H](Cc3ccccc3)C(=O)N[C@@H](Cc3csc4ccccc34)C(=O)N[C@@H](CCC(N)=O)C(N)=O)NC(=O)[C@H](C(C)C)NC(=O)[C@H](CC3CCCC3)NC(=O)[C@H](C)NC(=O)[C@H](C)NC(=O)[C@H](CCC(=O)O)NC(=O)[C@H](CC(=O)O)NC1=O)NC(=O)[C@H](C)NC(=O)[C@H](CC(=O)O)NC2=O (stereo partly drawn) [I-392, Ac-PL3-Asp-Ala-B5-Asp-Glu-Ala-Ala-CypA-Val-S8-Phe-BztA-Gln-NH2] | – | – | – | 10 µM (≈ 18 µg/mL) | 5000 nM | – | – | – | 2.52
